Reference: patent US20100068766A1, “COMPOSITION FOR CLEAVING AND/OR CONNECTING SINGLE STRAND DNA” (WASEDA UNIVERSITY, priority 2007, published 2010)

Assays:
[1] = target: T1, Ev1 protein (Homo sapiens, UniProt Q9UI08); assay: Gel shift method, single-stranded DNA binding activity of the Ev1 protein in the presence of compounds; conditions: compound 1, 5, 10 and 20 μM; 0.3 μM Ev1 protein; 20 μM φ×174 single-stranded DNA; 37° C., 15 minutes
T1 construct: in accordance with the protocols used in purification of the entire-length Ev1 protein; 6xHis (N, cleaved yes); made in house; host or cells: E. coli BL21 (DE3) codon plus-RP, pET15b vector
T1 sequence (Q9UI08 1-418 isoform Q9UI08-2): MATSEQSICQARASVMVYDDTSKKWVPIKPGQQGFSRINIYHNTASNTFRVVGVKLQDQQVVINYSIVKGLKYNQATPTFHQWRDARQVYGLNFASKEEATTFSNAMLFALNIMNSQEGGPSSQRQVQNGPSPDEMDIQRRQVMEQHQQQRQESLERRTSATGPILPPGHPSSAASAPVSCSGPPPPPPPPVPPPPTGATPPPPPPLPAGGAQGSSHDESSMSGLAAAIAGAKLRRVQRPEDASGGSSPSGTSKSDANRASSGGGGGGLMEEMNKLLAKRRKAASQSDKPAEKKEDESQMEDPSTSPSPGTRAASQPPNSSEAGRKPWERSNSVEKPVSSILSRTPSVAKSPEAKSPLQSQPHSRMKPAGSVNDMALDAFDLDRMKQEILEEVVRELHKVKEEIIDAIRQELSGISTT
Protocol: Moreover, in a gel shift method involving single-stranded DNA binding activity (FIGS. 14b, 15b, 16b, 17b, and 18b), each compound in final concentrations of 1, 5, 10, and 20 μM, a φ×174 single-stranded DNA in a final concentration of 20 μM, and an Ev1 protein in a final concentration of 0.3 μM were added to 20 μl of a reaction solution (20 mM HEPES, 1 mM DTT, 100 μg/ml BSA, and 1 mM MgCl2). The obtained mixture was reacted at 37° C. for 15 minutes. Thereafter, the reaction product was electrophoresed on a 0.8% HGT agarose gel, and DNA was then detected with ethidium bromide.

[2] = target: T1, Ev1 protein; assay: Influence of low molecular weight compounds on single-stranded DNA catenation activity of the Ev1 protein; type: biochemical; conditions: compound 1, 5, 10 and 20 μM; 4 μM Ev1 protein; 20 μM φ×174 single-stranded DNA; 37° C., 1 hour
Protocol: With regard to the influence of each compound on the catenation activity of the Ev1 protein (FIGS. 14a, 15a, 16, 17a, and 18a), each compound in final concentrations of 1, 5, 10, and 20 μM, a φ×174 single-stranded DNA in a final concentration of 20 μM, and an Ev1 protein in a final concentration of 4 μM were added to 10 μl of a reaction solution (20 mM HEPES, 1 mM DTT, 100 μg/ml BSA, and 1 mM MgCl2). The obtained mixture was reacted at 37° C. for 1 hour. After completion of the reaction, 2 μl of a PK solution (0.2% SDS and 1.3 mg/ml proteinase K) was added to the reaction solution, and the obtained mixture was then reacted at 37° C. for 15 minutes. Thereafter, the reaction product was electrophoresed on a 0.8% HGT agarose gel, and DNA was then detected with SYBR Gold.

Compound	influence on activity of the Ev1 protein to bind to single-stranded DNA (gel shift) [1]	effect on single-stranded DNA catenation activity of the Ev1 protein [2]
Cc1cc(N)c2ccccc2[n+]1CCCCCCCCCC[n+]1c(C)cc(N)c2ccccc21 [dequalinium, dequalinium chloride]	changes the binding manner of the Ev1 protein that binds to a single-stranded DNA	inhibits the single-stranded DNA catenation activity of the Ev1 protein
Nc1ccc2c(=S)c3ccccc3[nH]c2c1 [3-ATA, 3-amino-9-thio(10H)-acridone]	does not change the single-stranded DNA binding activity of the Ev1 protein	inhibits the single-stranded DNA catenation activity of the Ev1 protein
β-rubromycin	changes the binding manner of the Ev1 protein that binds to a single-stranded DNA	inhibits the single-stranded DNA catenation activity of the Ev1 protein
O=S(=O)(O)c1cc(N=C=S)ccc1C=Cc1ccc(N=C=S)cc1S(=O)(=O)O [DIDS]	inhibits the single-stranded DNA binding activity of the Ev1 protein	inhibits the single-stranded DNA catenation activity of the Ev1 protein
CC[C@@]1(O)C[C@H](O[C@H]2C[C@H](N(C)C)[C@H](O[C@H]3C[C@H](O)[C@H](O[C@H]4CCC(=O)[C@H](C)O4)[C@H](C)O3)[C@H](C)O2)c2c(cc3c(c2O)C(=O)c2c(O)cccc2C3=O)[C@H]1C(=O)OC [aclarubicin]	does not change the activity of the Ev1 protein to bind to circular single-stranded DNA	inhibits the activity of an Ev1 protein to catenate single-stranded DNA molecules
